Reference: patent US20240100023A1, “Compositions and Methods For Treating Spinal Cord Injuries” (priority 2020, published 2024)
“Also recorded” adds a separate entry of the source.

Tests used:
[1] = tested on: unanesthetized, freely moving rats; assay: Diaphragm EMG and plethysmography in awake rats after C2Hx; assay type: in vivo, Rat
Description: Low dose ampakine treatment was evaluated in awake, freely moving subjects to determine whether this treatment would safely and effectively increase diaphragm activity impaired due to acute- or sub-acute cervical SCI. In a placebo-controlled experiment with freely-moving non-anesthetized rats, ventilation and metabolic rate (VCO2) were measured using whole body plethysmography and diaphragm EMG using in-dwelling muscle electrodes. Diaphragm electromyography (EMG) was recorded using chronic in-dwelling electrodes in unanesthetized, freely moving rats. A spinal hemilesion was induced at C2 (C2Hx), and rats were studied at 4- and 14-days post injury during quiet room air breathing and acute respiratory challenge accomplished by inspiring 10% O2, 7% CO2 gas mixture. At 4 and 14 days following C2 spinal hemisection injury (C2Hx), rats were given a single intravenous bolus of CX717 (5 mg/kg, n=8), CX1739 (5 mg/kg, n=8) or vehicle (2-hydroxypropyl-beta-cyclodextrin; HPCD; n=8) (FIG. 22). Hemisectional spinal surgery results in reduced diaphragm activity as measured by EMG and plethysmography (FIG. 23).

Rat (SD) = assay: Amphetamine-stimulated locomotion and rearing in rats; assay type: in vivo; conditions: for Minimum Effective Dose, amphetamine-stimulated locomotion and rearing: Rat (SD), PO
Description: (§1) Effects of exemplary low impact ampakines were also evaluated in mice for the ability to inhibit amphetamine-stimulated locomotor activity. Mice were placed in the locomotor chamber for 20 min to habituate, removed, injected with either vehicle or SCI recovery ampakine (CX717), and 5 min later injected with 2 mg/kg i.p. Amphetamine Mice were returned to the locomotor chamber 10 min later, and their activity measured for a further 15 min. In related studies, adult male CD1 mice or male Sprague-Dawley rats were acclimated in a test chamber for 20 minutes removed and dosed i.p. (mice) or orally (rats) with CX1739, vehicle, or a reference compound. Five (mice) or 10 (rats) were then injected with amphetamine (2 mg/kg, i.p.) or saline vehicle and were returned to the activity test chamber.

[2] = tested on: adult patients with Attention-Deficit Hyperactive Disorder (ADHD); assay: Phase 2 randomized, double-blind, 2-period crossover study in adult ADHD; assay type: in vivo, human; conditions: for ADHD-RS hyperactivity subscale mean score: ITT
Description: *This phase 2 study evaluated the efficacy, tolerability and safety of CX717 in the treatment of adult patients with Attention-Deficit Hyperactive Disorder (ADHD). The study was designed and executed as a randomized, double-blind, multi-center, 2-period crossover study comparing 2 doses of CX717 (200 mg, or 800 mg, BID) with placebo. Each treatment period lasted 3 weeks with a 2-week washout in between. Subjects met DSM-IV criteria for adult ADHD and had moderate to severe symptoms. The primary efficacy measure was the change from baseline on the ADHD Rating Scale (ADHD-RS) with adult ADHD prompts. A total of 68 male subjects, who were 19 to 50 years old and met criteria of Adult ADHD as defined by DSM IV, were randomized After accounting for early study dropouts, 51 subjects (75%) returned for efficacy assessments and completed both treatment periods (intent-to-treat population). […] Treatment with CX717 was well tolerated with no clinically significant changes in cardiovascular and other safety parameters with either dose. Sleep disturbances and headache were the most frequently reported adverse events.
The present study further examined the clinical efficacy, tolerability and safety of CX717 as a drug treatment for adults with ADHD. Eligible subjects were randomized to 1 of 4 possible treatment sequences in which they received placebo (P) and either high dose (H) or low dose (L) of active treatment in random order (PL, PH, LP, and HP). Each treatment period was 3 weeks in duration with a 2-week washout in between. The study design was modeled after several similarly published ADHD studies with atomoxetine and stimulants, with sample sizes in the mid-20s. Since this is the first such study with CX7171 in ADHD, it is assumed that efficacy would be achieved using historical assumptions in effect size, therefore, a total of 60 subjects were to be randomized.
All patients met DSM-IV criteria for adult ADHD, established by the Adult ADHD Clinical Diagnostic Scale (ACDS) Version 1.2. All patients gave written informed consent prior to enrollment and the conduct of the study was approved by either the […] Review Board (IRB) at each site or by the central IRB. Each subject had at least moderately severe ADHD symptoms (ADHD-RS score of ≥22; Clinician's Global Impression of Severity [CGI-S] score of ≥4). Each subject was male, and between 18-50 years old, inclusively. Male patients were selected because the necessary reproductive toxicology studies that would have allowed women of childbearing potential to be included in the study had not been completed.
Subjects were excluded if they were taking medication specifically for treatment of ADHD symptoms (e.g., stimulants, atomoxetine, tricyclic antidepressants, or bupropion). ADHD treatments were discontinued (stimulants for 2 weeks and non-stimulant for 4 weeks) prior to the Period 1 baseline visit. Subjects were also excluded if they were taking antidepressants, anticonvulsants, or antipsychotics.
CX717 capsules were administered orally as 200 mg BID or 800 mg BID doses. Matching placebo capsules were identical in appearance to the capsules containing active drug, and were administered orally. The study was divided into a series of periods: screening period—up to 4 weeks, treatment period 1-3 weeks; wash-out period—2 weeks; treatment period 2-3 weeks; follow-up period—approximately 1 week.
ADHD recovery drug efficacy was assessed using the Adult ADHD Rating Scale (DuPaul, 1998) with prompts ([…]) (Adler & Cohen, 2004). The primary efficacy outcome measure was the comparison of each dose of CX717 versus placebo on the change from baseline in ADHD symptoms as measured by the ADHD-RS at Week 3. Secondary efficacy parameters included comparisons of each dose of CX717 versus placebo for the ADHD-RS Inattentiveness Subscale Score of the ADHD-RS.
Safety was evaluated by adverse events (AEs), clinical laboratory tests, vital signs, physical examination, and electrocardiograms (ECGs). […]

LTP in rat hippocampus = assay: Induction of LTP in rat hippocampus in vivo; parameters: species or system Rat (Long Evans); conditions: for Minimum Effective Dose, effect on induction of LTP in rat hippocampus: Rat (Long Evans), IP
[3] = Phase 1 studies in healthy volunteers (safety, pharmacokinetics); assay type: in vivo, human
Mouse (CD1) = assay: Amphetamine-stimulated locomotion in mice; assay type: in vivo; conditions: for Minimum Effective Dose, amphetamine-stimulated locomotion: Mouse (CD1), IP; for Dose producing a significant decrease in amphetamine-stimulated locomotion: mice, amphetamine 2 mg/kg i.p.
Description: as §1

[4] = 14 days post injury, baseline breathing, 5 mg/kg i.v.
[5] = high dose (800 mg BID), after 3 weeks

| SMILES | Increase in tidal volume [1, 4] | Increase of peak inspiratory ipsilateral diaphragm EMG activity [1, 4] [%] | Minimum Effective Dose, amphetamine-stimulated locomotion and rearing (Rat (SD)) [mg/kg] | ADHD-RS outcome measures, low dose versus placebo ([2]; 200 mg BID) | ADHD-RS total and subscales, high dose versus placebo, repeated measures analysis ([2]; 800 mg BID, at endpoint) | ADHD-RS hyperactivity subscale mean score ([2]; active dose (both doses), last value) | Difference from placebo in mean change of ADHD-RS total score [2, 5] | Mean change from baseline of ADHD-RS total score [2, 5] | ADHD-RS hyperactivity subscale mean score ([2]; high dose, Week 1) | ADHD-RS hyperactivity subscale mean score ([2]; high dose, Week 3) | ADHD-RS hyperactivity subscale mean score ([2]; high dose, last value) | Minimum Effective Dose, effect on induction of LTP in rat hippocampus (LTP in rat hippocampus) [mg/kg] | Half-life compared with CX516 ([3]; species not stated) | Minimum Effective Dose, amphetamine-stimulated locomotion (Mouse (CD1)) [mg/kg] | Dose producing a significant decrease in amphetamine-stimulated locomotion (Mouse (CD1)) [mg/kg] | Increase in tidal volume ([1]; 4-day time point, 5 mg/kg intravenous bolus) [%] | Tidal volume during hypoxia-hypercapnia challenge ([1]; 10% O2, 7% CO2, follows the 4-day results) | Amphetamine-stimulated rearing behavior in rats (Rat (SD); rats, all doses tested) | Effect on LTP after tetanic stimulation (LTP in rat hippocampus; 3 mg/kg, 15 minutes prior to tetanic stimulation) | Half-life compared with CX516 ([3]; human, in vivo) |
| --- | --- | --- | --- | --- | --- | --- | --- | --- | --- | --- | --- | --- | --- | --- | --- | --- | --- | --- | --- | --- |
| O=C(c1ccc2nonc2c1)N1CCOCC1 [CX717, 1-(benzofurazan-5-ylcarbonyl)morpholine] | ~20% | ~30 | 1 | no statistically significant differences; also recorded: did not differ from placebo | superior efficacy compared to placebo | −4.10 | −4.73 | −9.95 | −4.22 | −5.68 | −5.57 | 2 | significantly longer half-lives than CX516 | 18 | 3 |  |  |  |  |  |
| CN(C(=O)c1ccc2nonc2c1)C1CCOCC1 [CX1739, N-Methyl-N-tetrahydro-2H-pyran-4-yl-[2,1,3]-benzoxadiazole-5-carboxamide] | no change in tidal volume | ~10 | 1 |  |  |  |  |  |  |  |  | 3 |  | 30 | 30 | 20 | larger increase in tidal volume | modest reduction | statistically significant increase in LTP | significantly longer half-lives than CX516 |
